Test results as given in PMC6272685, “Docking and Antiherpetic Activity of 2-Aminobenzo[de]-isoquinoline-1,3-diones” (Molecules, 2015).
Values after ≈ are worked out from the molar mass of the structure shown. “Also recorded” adds a separate entry of the source.

Assays:
HSV-1 = assay: cytopathic effect inhibition assay against HSV-1 in Vero cells; format: cell-based, herpes simplex virus 1 (GHSV-UL46); details: for HSV-1 EC50: Vero cells, 48 h, cytopathic effect inhibition; for antiviral activity against HSV-1 in words: in comparison with compounds 14–16; for HSV-1 SI: ratio of CC50 to EC50; for activity class in terms of SI-values (HSV-1): virus not named, agrees with HSV-1 SI of Table 2; as to activity class in terms of SI-values (HSV-1): key: inactive (SI < 2); active (SI ≥ 2)
Method: (§1) Vero cells (derived from the kidney of a normal African green monkey) were obtained from the American Type Culture Collection (ATCC, Manassas, VA, USA). The viral strains used were GHSV-UL46 for HSV-1 and the G strain for HSV-2. The Vero cells were propagated in Dulbecco’s modified Eagle’s medium (DMEM) supplemented with 10% heat-inactivated foetal bovine serum (FBS), 1% L-glutamine, HEPES buffer and 50 µg/mL gentamycin. All cells were maintained at 37 °C in a humidified atmosphere with 5% CO2 and were subcultured two times a week.
(§2) The antiviral screening was performed using a cytopathic effect inhibition assay at the Regional Center for Mycology and Biotechnology (RCMB, Al-Azhar University, Cairo, Egypt). This assay was selected to show specific inhibition of a biological function, that is, a cytopathic effect in susceptible mammalian cells. In brief, monolayers of 10,000 Vero cells adhering at the bottom of the wells in a 96-well microtiter plate were incubated for 24 h at 37 °C in a humidified incubator with 5% CO2. The plates were washed with fresh DMEM and challenged with 10^4 doses of herpes simplex 1 or 2 virus, and then the cultures were simultaneously treated with two-fold serial dilutions of the tested compound, starting from 500 µg/mL and going up to about 2 µg/mL (500, 250, 125, 62.5, …, 1.95 µg/mL) in a fresh maintenance medium; following this, they were incubated at 37 °C for 48 h. An infection control, as well as an untreated Vero cell control were made in the absence of tested compounds. […] Antiviral activity was determined by the inhibition of the cytopathic effect compared to a control, that is, the protection offered by the tested compound to the cells was scored. Three independent experiments were assessed, each containing four replicates per treatment.
(§3) After the incubation period, the media was aspirated, and then the cells were stained with a 1% crystal violet solution for 30 min. Thereafter, all excess stain was removed by rinsing the plates with tap water. The plates were allowed to dry, and then glacial acetic acid (30%) was added to all wells and mixed thoroughly. The absorbance of the plates was measured after gentle shaking on a microplate reader (Tecan Inc., Morrisville, NC, USA), at 590 nm. The viral inhibition rate was calculated as follows: [(ODtv − ODcv)/(ODcd − ODcv)] × 100% where ODtv, ODcv and ODcd indicate the absorbance of the tested compounds with virus-infected cells, the absorbance of the virus control and the absorbance of the cell control, respectively.
EC50 values were determined directly from the curve obtained by plotting the inhibition of the virus yield against the concentration of the samples. […] This index is referred to as a therapeutic index, and it was also used to determine whether a compound warranted further study.

HSV-2 = assay: cytopathic effect inhibition assay against HSV-2 in Vero cells; format: cell-based, herpes simplex virus 2 (G strain); details: for HSV-2 EC50: Vero cells, 48 h, cytopathic effect inhibition; for HSV-2 SI: ratio of CC50 to EC50; for antiviral activity against HSV-2 in words: in comparison with compounds 14–16; as to activity class in terms of SI-values (HSV-2): key: inactive (SI < 2); active (SI ≥ 2)
Method: as §1, §2, §3
EC50 values were determined directly from the curve obtained by plotting the inhibition of the virus yield against the concentration of the samples. The selectivity index (SI) was calculated from the ratio of CC50 to EC50 in order to determine whether each compound had sufficient antiviral activity that exceeded its level of toxicity. This index is referred to as a therapeutic index, and it was also used to determine whether a compound warranted further study.

Vero cells = assay: cytotoxicity evaluation using viability assay (crystal violet); format: cell-based, African green monkey; details: 48 h
Method: as §1
The Vero cell lines in the cytotoxicity assay were seeded in 96-well plates at a cell concentration of 1 × 10^4 cells per well in 100 µL of the growth medium. Fresh medium containing different concentrations of the tested sample was added after 24 h of seeding. Serial two-fold dilutions of the tested compound were added to confluent cell monolayers dispensed into 96-well, flat-bottomed microtiter plates (Falcon, Jersey, NJ, USA) using a multichannel pipette. The microtiter plates were incubated at 37 °C in a humidified incubator with 5% CO2 for a period of 48 h. Three wells were used for each concentration of the tested sample. Control cells were incubated without test samples and with or without DMSO. The small percentage of DMSO present in the wells (maximal 0.1%) was not found to affect the experiment.
After the end of the incubation period, the viable cell yield was determined by a colorimetric method. In brief, the process of treatment the media with crystal violet solution and measurement of absorbance at 590 nm using a microplate reader was mentioned above. The absorbance was proportional to the number of surviving cells in the culture plate. All the results were corrected for background absorbance detected in wells without added stain. Treated samples were compared with the cell control in the absence of the tested compounds. All experiments were carried out in triplicate. The cell cytotoxicity effect of each tested compound was calculated.
Statistics were done using a one-way ANOVA test, and the percentage cell viability was calculated using Microsoft Excel®, as follows: % Cell viability = [(Mean Abscontrol− Mean Abstest metabolite)/Mean Abscontrol] × 100 where Abs equals the absorbance at 590 nm. The CC50 was estimated from graphic plots and the STATA statistical analysis package was used for the drawing of the dose response curve, in order to calculate CC50. Concerning antiviral evaluation, all experiments and data analysis were performed in RCMB, Al-Azhar University, Cairo, Egypt.

| SMILES | HSV-1 EC50 (HSV-1) [µg/mL] | antiviral activity against HSV-1 in words (HSV-1) | HSV-1 SI (HSV-1) | activity class in terms of SI-values (HSV-1) (HSV-1) | HSV-2 EC50 (HSV-2) [µg/mL] | HSV-2 SI (HSV-2) | CC50 (Vero cells) [µg/mL] | antiviral activity against HSV-2 in words (HSV-2) | activity class in terms of SI-values (HSV-2) (HSV-2) |
| --- | --- | --- | --- | --- | --- | --- | --- | --- | --- |
| C=CCNC(=S)NN1C(=O)c2cccc3cccc(c23)C1=O [Compound 16] | 17.8 ± 1.4 | highest effects | 5.4 | active | 292 ± 4.8 | 0.3 | 96 ± 12 (≈ 308 µM) |  |  |
| COc1ccccc1C=NN1C(=O)c2cccc3cccc(c23)C1=O [Compound 4] | 189 ± 3.2 |  | 2.6 | active | 312 ± 9.6 | 1.6 | 486 ± 18 (≈ 1470 µM) | low activity |  |
| O=C1c2cccc3cccc(c23)C(=O)N1N=Cc1ccco1 [Compound 14] | 19.6 ± 0.9 | most active; also recorded: highest effects | 16.4 |  | 71.8 ± 1.8 | 4.5 | 321 ± 23 (≈ 1110 µM) |  | active |
| O=C1c2cccc3cccc(c23)C(=O)N1n1c(=O)c2cc3c(=O)n(N4C(=O)c5cccc6cccc(c56)C4=O)c(=O)c3cc2c1=O [Compound 24] | >500 |  |  |  | >500 |  | 386 ± 17 (≈ 636 µM) |  |  |
| CC=NN1C(=O)c2cccc3cccc(c23)C1=O [Compound 1] | >500 |  |  |  | >500 |  | 375 ± 25 (≈ 1570 µM) |  |  |
| O=C1c2cccc3cccc(c23)C(=O)N1N=Cc1ccccc1 [Compound 3] | 158 ± 1.8 |  | 1.2 |  | >500 |  | 196 ± 22 (≈ 653 µM) |  |  |
| O=C1c2cccc3cccc(c23)C(=O)N1NC(=S)NC1CCCCC1 [Compound 18] | 319 ± 3.7 | low activity | 1.5 |  | >500 |  | 482 ± 14 (≈ 1360 µM) |  |  |
| O=C1c2cccc3cccc(c23)C(=O)N1N=Cc1ccsc1 [Compound 15] | 16.2 ± 1.1 | most active; also recorded: highest effects | 11.1 |  | 56.7 ± 2.6 | 3.2 | 180 ± 8 (≈ 588 µM) |  | active |
| CCC=NN1C(=O)c2cccc3cccc(c23)C1=O [Compound 2] | >500 |  |  |  | >500 |  | 317 ± 13 (≈ 1260 µM) |  |  |
| O=C1c2cccc3cccc(c23)C(=O)N1N1C(=O)c2cccc3cccc(c23)C1=O [Compound 22] | 74.6 ± 3.4 | good antiviral effect | 7.5 |  | 428 ± 10.2 | 1.3 | 560 ± 46 (≈ 1430 µM) |  |  |
| COc1ccc(C=NN2C(=O)c3cccc4cccc(c34)C2=O)c(OC)c1 [Compound 10] | 149 ± 5.3 | low activity | 2.6 | active | 416 ± 8.2 | 0.9 | 380 ± 16 (≈ 1050 µM) | low activity |  |
| O=C1c2cccc3cccc(c23)C(=O)N1N=Cc1ccc(Cl)cc1Cl [Compound 11] | >500 |  |  |  | >500 |  | 316 ± 24 (≈ 856 µM) |  |  |
| O=C1C=CC(=O)N1N1C(=O)c2cccc3cccc(c23)C1=O [Compound 20] | >500 |  |  |  | >500 |  | 220 ± 16 (≈ 753 µM) |  |  |
| CN(C)c1ccc(C=NN2C(=O)c3cccc4cccc(c34)C2=O)cc1 [Compound 8] | >500 |  |  |  | >500 |  | 289 ± 13 (≈ 842 µM) |  |  |
| O=C1c2cccc3cccc(c23)C(=O)N1N=Cc1cccc([N+](=O)[O-])c1 [Compound 6] | 174 ± 1.8 | low activity | 1.8 |  | >500 |  | 316 ± 11 (≈ 915 µM) |  |  |
| O=C1CCC(=O)N1N1C(=O)c2cccc3cccc(c23)C1=O [Compound 19] | >500 |  |  |  | >500 |  | 220 ± 16 (≈ 748 µM) |  |  |
| O=C1c2cccc3cccc(c23)C(=O)N1N=Cc1ccc(O)cc1 [Compound 7] | 113 ± 4.6 | good antiviral effect | 3.6 | active | 220 ± 3.8 | 1.9 | 412 ± 24 (≈ 1300 µM) | low activity |  |
| O=C1c2ccccc2C(=O)N1N1C(=O)c2cccc3cccc(c23)C1=O [Compound 21] | 102 ± 5.8 | good antiviral effect | 4.8 |  | 374 ± 3.7 | 1.3 | 490 ± 21 (≈ 1430 µM) | low activity |  |
| COc1cc(C=NN2C(=O)c3cccc4cccc(c34)C2=O)ccc1O [Compound 9] | 78.3 ± 1.5 | good antiviral effect | 3.0 | active | 108 ± 4.1 | 2.2 | 236 ± 8 (≈ 681 µM) |  | active |
| O=C1c2cccc3cccc(c23)C(=O)N1n1c(=O)c2cc3c(=O)oc(=O)c3cc2c1=O [Compound 23] | 176 ± 2.4 | low activity | 2.3 |  | >500 |  | 412 ± 18 (≈ 999 µM) |  |  |
| O=C1c2cccc3cccc(c23)C(=O)N1N=Cc1cccnc1 [Compound 13] | 117.2 ± 3.1 |  | 3.9 | active | 308 ± 7.1 | 1.5 | 458 ± 27 (≈ 1520 µM) | low activity |  |
| O=C1c2cccc3cccc(c23)C(=O)N1NC(=S)Nc1ccccc1 [Compound 17] | 236 ± 4.9 | low activity | 2.2 | active | >500 |  | 518 ± 34 (≈ 1490 µM) |  |  |
| COc1cccc(C=NN2C(=O)c3cccc4cccc(c34)C2=O)c1 [Compound 5] | 176 ± 4.6 | low activity | 2.6 | active | >500 |  | 452 ± 9 (≈ 1370 µM) |  |  |
